Reference: patent publication US10487093B2, “Heterocyclic compounds, in particular 2-oxo-4,4,5,5,6,6,7,7-octahydrobenzoxazole derivatives, and their use as antibacterial compounds” (priority 2016, dated 2019)
Converted amounts (≈) assume the structure as drawn.

Key:
[1] = test system: Acinetobacter baumannii NCTC 13420; test: MIC, broth microdilution (CLSI) versus planktonic bacteria; assay type: cell-based; conditions: NCTC13420; Acinetobacter baumannii NCTC 13420; 16-20 h; mode of three independent experiments; read-out: MIC, Ab NCTC 13420
[2] = test system: Streptococcus pneumoniae ATCC 49619; test: as above; assay type: cell-based; conditions: ATCC49619; Streptococcus pneumoniae ATCC 49619; 16-20 h; mode of three independent experiments; read-out: MIC, Sp ATCC 49619
[3] = test system: Pseudomonas aeruginosa ATCC 27853; test: as above; assay type: cell-based; conditions: ATCC27853; Pseudomonas aeruginosa ATCC 27853; 16-20 h; mode of three independent experiments; read-out: MIC, Pa ATCC 27853
[4] = test system: Escherichia coli ATCC 25922; test: as above; assay type: cell-based; conditions: ATCC25922; Escherichia coli ATCC 25922; 16-20 h; mode of three independent experiments; read-out: MIC, Ec ATCC 25922
[5] = test system: human hepatic cell line (HepG2 ATCC HB-8065); test: Human cell viability assay (CellTiter-Glo); conditions: Homo sapiens, HepG2, 24 h, read-out: IC50 (μg/mL) HepG2
[6] = test system: Enterobacter cloacae NCTC 13406; test: MIC, broth microdilution (CLSI) versus planktonic bacteria; assay type: cell-based; conditions: NCTC13406; Enterobacter cloacae NCTC 13406; 16-20 h; mode of three independent experiments; read-out: MIC, Ecl NCTC 13406
[7] = test system: Staphylococcus aureus ATCC 29213; test: as above; assay type: cell-based; conditions: ATCC29213; Staphylococcus aureus ATCC 29213; 16-20 h; mode of three independent experiments; read-out: MIC, Sa ATCC 29213
[8] = test system: Haemophilus influenzae ATCC 49247; test: as above; assay type: cell-based; conditions: ATCC49247; Haemophilus influenzae ATCC 49247; 16-20 h; mode of three independent experiments; read-out: MIC, Hi ATCC 49247

Row | SMILES | MIC [1] | MIC [2] | MIC [3] | MIC [4] | IC50 [5] | MIC [6] | MIC [7] | MIC [8]
1 | O=C1COc2ccc(N3C(=O)O[C@H]4C[C@@H](NCCn5c(=O)ccc6ccc(OC7CNC7)cc65)CC[C@@H]43)nc2N1 [Compound 103, 1-(2-{[(3aS,6S,7aS)-2-oxo-3-{3-oxo-2H,3H,4H-pyrido[3,2-b][1,4]oxazin-6-yl}-octahydro-1,3-benzoxazol-6-yl]amino}ethyl)-7-(azetidin-3-yloxy)-1,2-dihydroquinolin-2-one] | 10 to 100 µg/mL (≈ 18.3 to 183 µM) | 1 to 10 µg/mL (≈ 1.83 to 18.3 µM) | 1 to 10 µg/mL (≈ 1.83 to 18.3 µM) | 1 to 10 µg/mL (≈ 1.83 to 18.3 µM) | – | – | – | –
2 | O=C1COc2ccc(N3C(=O)O[C@@H]4C[C@@H](NCCn5c(=O)ccc6ncc(F)cc65)CC[C@@H]43)nc2N1 [Compound 28, 1-(2-{[(3aS,6S,7aR)-2-oxo-3-{3-oxo-2H,3H,4H-pyrido[3,2-b][1,4]oxazin-6-yl}-octahydro-1,3-benzoxazol-6-yl]amino}ethyl)-7-fluoro-1,2-dihydro-1,5-naphthyridin-2-one] | 1 to 10 µg/mL (≈ 2.02 to 20.2 µM) | < 1 µg/mL | 1 to 10 µg/mL (≈ 2.02 to 20.2 µM) | < 1 µg/mL | > 100 µg/mL | 1 to 10 µg/mL (≈ 2.02 to 20.2 µM) | < 1 µg/mL | 1 to 10 µg/mL (≈ 2.02 to 20.2 µM)
3 | N#Cc1ccc2c(ccc(=O)n2CCN[C@H]2CC[C@H]3[C@H](C2)OC(=O)N3c2ccc3c(n2)NC(=O)CO3)c1 [Compound 107, 1-(2-{[(3aS,6S,7aS)-2-oxo-3-{3-oxo-2H,3H,4H-pyrido[3,2-b][1,4]oxazin-6-yl}-octahydro-1,3-benzoxazol-6-yl]amino}ethyl)-2-oxo-1,2-dihydroquinoline-6-carbonitrile] | 1 to 10 µg/mL (≈ 2 to 20 µM) | 1 to 10 µg/mL (≈ 2 to 20 µM) | > 100 µg/mL | 1 to 10 µg/mL (≈ 2 to 20 µM) | – | 10 to 100 µg/mL (≈ 20 to 200 µM) | 1 to 10 µg/mL (≈ 2 to 20 µM) | 1 to 10 µg/mL (≈ 2 to 20 µM)
4 | COc1cnc2ccc(=O)n(CCN[C@@H]3CC[C@@H]4[C@@H](C3)OC(=O)N4c3ncc4c(n3)NC(=O)CO4)c2c1 [Compound 41, 1-(2-{[(3aR,6R,7aR)-2-oxo-3-{7-oxo-6H,7H,8H-pyrimido[5,4-b][1,4]oxazin-2-yl}-octahydro-1,3-benzoxazol-6-yl]amino}ethyl)-7-methoxy-1,2-dihydro-1,5-naphthyridin-2-one] | 10 to 100 µg/mL (≈ 19.7 to 197 µM) | < 1 µg/mL | 1 to 10 µg/mL (≈ 1.97 to 19.7 µM) | < 1 µg/mL | – | 1 to 10 µg/mL (≈ 1.97 to 19.7 µM) | < 1 µg/mL | –
5 | COc1ncc2ccc(=O)n(CCN[C@@H]3CC[C@@H]4[C@@H](C3)OC(=O)N4c3ncc4c(n3)NC(=O)CO4)c2n1 [Compound 33, (3aR,6R,7aR)-6-[(2-{2-methoxy-7-oxo-7H,8H-pyrido[2,3-d]pyrimidin-8-yl}ethyl)amino]-3-{7-oxo-6H,7H,8H-pyrimido[5,4-b][1,4]oxazin-2-yl}-octahydro-1,3-benzoxazol-2-one] | 10 to 100 µg/mL (≈ 19.7 to 197 µM) | < 1 µg/mL | 10 to 100 µg/mL (≈ 19.7 to 197 µM) | < 1 µg/mL | – | 1 to 10 µg/mL (≈ 1.97 to 19.7 µM) | < 1 µg/mL | 1 to 10 µg/mL (≈ 1.97 to 19.7 µM)
6 | COc1cnc2ccc(=O)n(CCCN[C@H]3CC[C@H]4[C@H](C3)OC(=O)N4c3ccc4c(n3)NC(=O)CS4)c2c1 [Compound 96, 1-(3-{[(3aS,6S,7aS)-2-oxo-3-{3-oxo-2H,3H,4H-pyrido[3,2-b][1,4]thiazin-6-yl}-octahydro-1,3-benzoxazol-6-yl]amino}propyl)-7-methoxy-1,2-dihydro-1,5-naphthyridin-2-one] | < 1 µg/mL | – | 1 to 10 µg/mL (≈ 1.86 to 18.6 µM) | – | – | < 1 µg/mL | < 1 µg/mL | < 1 µg/mL
7 | COc1cccc(-c2cccc(CN[C@H]3CC[C@H]4[C@H](C3)OC(=O)N4c3ccc4c(n3)NC(=O)CO4)c2)n1 [Compound 73, (3aS,6S,7aS)-6-({[3-(6-methoxypyridin-2-yl)phenyl]methyl}amino)-3-{3-oxo-2H,3H,4H-pyrido[3,2-b][1,4]oxazin-6-yl}-octahydro-1,3-benzoxazol-2-one] | 1 to 10 µg/mL (≈ 1.99 to 19.9 µM) | 1 to 10 µg/mL (≈ 1.99 to 19.9 µM) | 10 to 100 µg/mL (≈ 19.9 to 199 µM) | < 1 µg/mL | – | 1 to 10 µg/mL (≈ 1.99 to 19.9 µM) | < 1 µg/mL | 1 to 10 µg/mL (≈ 1.99 to 19.9 µM)
8 | COc1ncc2ccc(=O)n(CCN[C@H]3CC[C@H]4[C@H](C3)OC(=O)N4c3ccc4c(n3)NC(=O)CO4)c2n1 [Compound 52, (3aS,6S,7aS)-6-[(2-{2-methoxy-7-oxo-7H,8H-pyrido[2,3-d]pyrimidin-8-yl}ethyl)amino]-3-{3-oxo-2H,3H,4H-pyrido[3,2-b][1,4]oxazin-6-yl}-octahydro-1,3-benzoxazol-2-one] | 1 to 10 µg/mL (≈ 1.97 to 19.7 µM) | < 1 µg/mL | 10 to 100 µg/mL (≈ 19.7 to 197 µM) | < 1 µg/mL | – | 1 to 10 µg/mL (≈ 1.97 to 19.7 µM) | < 1 µg/mL | < 1 µg/mL
